Source: the supplement of paper PMC10307832

What was measured:
Assay in all cases: relative viability (nuclei count vs DMSO), 5 days (fraction); higher = more cells survive
Serdemetan + Luminespib = compound: c1ccc2c(CCNc3ccc(Nc4ccncc4)cc3)c[nH]c2c1 [Serdemetan] + CCNC(=O)c1noc(-c2cc(C(C)C)c(O)cc2O)c1-c1ccc(CN2CCOCC2)cc1 [Luminespib] (partner 0.01 µM)
Method in brief: (§1)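 Lung cancer cell lines, seeded in 1536-well plates, were treated the following day by pin tool with a single drug or with five library-drug doses (not always all listed) in √10 steps on top of a fixed anchor-drug dose. Cells were fixed and nuclei stained in one step after 5 days, and nuclei were counted. Relative viability is the nuclei count for treated wells divided by that for vehicle wells, reported as medians of duplicate plates.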

Serdemetan + Olaparib = compound: c1ccc2c(CCNc3ccc(Nc4ccncc4)cc3)c[nH]c2c1 [Serdemetan] + O=C(c1cc(Cc2n[nH]c(=O)c3ccccc23)ccc1F)N1CCN(C(=O)C2CC2)CC1 [Olaparib] (partner 8 µM)
Method in brief: as §1

Serdemetan + Tozasertib = compound: c1ccc2c(CCNc3ccc(Nc4ccncc4)cc3)c[nH]c2c1 [Serdemetan] + Cc1cc(Nc2cc(N3CCN(C)CC3)nc(Sc3ccc(NC(=O)C4CC4)cc3)n2)n[nH]1 [Tozasertib] (partner 0.1 µM)
Method in brief: as §1

Selisistat + Vorinostat = compound: C1CC(C2=C(C1)C3=C(N2)C=CC(=C3)Cl)C(=O)N [Selisistat] + O=C(CCCCCCC(=O)Nc1ccccc1)NO [Vorinostat] (partner 1 µM)
Method in brief: as §1

| Cell Line | relative viability (Serdemetan + Luminespib; first compound 0.04 µM) | relative viability (Serdemetan + Luminespib; first compound 0.1265 µM) | relative viability (Serdemetan + Luminespib; first compound 0.4 µM) | relative viability (Serdemetan + Luminespib; first compound 1.265 µM) | relative viability (Serdemetan + Luminespib; first compound 4 µM) | relative viability (Serdemetan + Olaparib; first compound 0.04 µM) | relative viability (Serdemetan + Olaparib; first compound 0.1265 µM) | relative viability (Serdemetan + Olaparib; first compound 4 µM) | relative viability (Serdemetan + Tozasertib; first compound 0.04 µM) | relative viability (Serdemetan + Tozasertib; first compound 0.1265 µM) | relative viability (Serdemetan + Tozasertib; first compound 0.4 µM) | relative viability (Serdemetan + Tozasertib; first compound 1.265 µM) | relative viability (Serdemetan + Tozasertib; first compound 4 µM) | relative viability (Selisistat + Vorinostat; first compound 0.4 µM) | relative viability (Selisistat + Vorinostat; first compound 1.265 µM) | relative viability (Selisistat + Vorinostat; first compound 4 µM) | relative viability (Selisistat + Vorinostat; first compound 12.65 µM) | relative viability (Selisistat + Vorinostat; first compound 40 µM) | relative viability (Serdemetan + Olaparib; first compound 0.4 µM) | relative viability (Serdemetan + Olaparib; first compound 1.265 µM) |
| --- | --- | --- | --- | --- | --- | --- | --- | --- | --- | --- | --- | --- | --- | --- | --- | --- | --- | --- | --- | --- |
| LOU-NH91 | 0.282 | 0.334 | 0.347 | 0.296 | 0.299 | 0.897 | 0.889 | 0.877 | 0.692 | 0.654 | 0.442 | 0.509 | 0.684 | 0.962 | 0.919 | 0.824 | 0.835 | 0.959 | – | – |
| NCI-H3122 | 0.0976 | 0.0835 | 0.115 | – | 0.101 | 0.597 | 0.614 | 0.367 | 0.369 | 0.431 | 0.382 | 0.406 | 0.337 | 0.977 | 0.919 | – | 1.09 | 1.34 | 0.557 | 0.407 |
| HCC-827 | 0.606 | 0.563 | – | 0.288 | 0.344 | 0.631 | 0.594 | 0.306 | 0.406 | 0.393 | – | 0.297 | 0.308 | 0.851 | 0.829 | 0.862 | 0.862 | 0.837 | – | 0.509 |
| SK-LU-1 | 0.19 | 0.201 | 0.223 | – | 0.207 | 0.463 | 0.369 | 0.365 | 0.378 | 0.298 | 0.337 | – | 0.294 | 0.747 | 0.792 | 1.02 | 0.821 | 0.927 | 0.479 | 0.308 |
| NCI-H1975 | 0.371 | 0.393 | 0.176 | 0.18 | 0.17 | 0.843 | 0.754 | 0.75 | 0.825 | 0.701 | 0.722 | – | 0.771 | 0.734 | 0.731 | 0.752 | 0.687 | 0.691 | 0.742 | 0.748 |
| NCI-H1651 | 0.714 | 0.591 | 0.457 | 0.473 | 0.273 | 0.179 | 0.165 | 0.141 | 0.696 | 0.613 | 0.338 | 0.343 | 0.292 | 0.625 | 0.672 | 0.552 | 0.638 | 0.622 | 0.159 | 0.131 |
| NCI-H441 | 0.381 | 0.298 | 0.321 | 0.316 | 0.325 | 0.513 | 0.422 | 0.281 | 0.719 | 0.669 | 0.687 | 0.709 | 0.605 | 0.851 | 0.723 | 0.805 | 0.666 | 1 | 0.5 | 0.3 |
| LCLC-103H | 0.971 | 1.03 | 1 | 0.975 | 0.751 | 0.742 | 0.727 | 0.728 | 0.611 | 0.605 | 0.502 | 0.448 | 0.402 | 0.824 | 0.908 | 0.747 | 0.803 | 0.953 | 0.661 | 0.593 |
| LCLC-97TM1 | 0.739 | 0.738 | 0.653 | – | 0.596 | 0.349 | 0.358 | 0.237 | 0.256 | 0.202 | 0.235 | – | 0.169 | 0.646 | 0.72 | – | 0.597 | 0.75 | 0.403 | 0.174 |
| NCI-H727 | 0.319 | 0.481 | 0.288 | 0.265 | 0.385 | 0.598 | 0.725 | 0.726 | 0.695 | 0.542 | 0.509 | 0.585 | 0.518 | 1.31 | 1.15 | 0.658 | 1.2 | 1.16 | 0.679 | 0.484 |
| NCI-H1355 | 0.671 | 0.667 | 0.609 | 0.353 | 0.449 | 0.672 | 0.709 | 0.566 | 0.489 | 0.508 | 0.443 | 0.381 | 0.385 | 0.686 | 0.696 | 0.704 | 0.719 | 0.798 | 0.648 | 0.471 |
| HOP-62 | 0.758 | 0.915 | 0.848 | 0.666 | 0.596 | 0.482 | 0.394 | 0.263 | 0.421 | 0.323 | 0.322 | 0.328 | 0.245 | 0.604 | 0.783 | 0.735 | 0.613 | 0.923 | 0.489 | – |
| NCI-H2085 | 0.454 | 0.394 | 0.457 | 0.382 | 0.354 | 0.818 | 0.676 | 0.393 | 0.813 | 0.797 | 0.77 | 0.708 | 0.574 | 0.908 | 0.855 | 0.714 | 0.828 | 0.84 | 0.597 | 0.44 |
